Measurements published in ChEMBL document CHEMBL5291721, “A preclinical secondary pharmacology resource illuminates target-adverse drug reaction associations of marketed drugs” (Nat Commun, 2023).

Columns and labels:
[1] = target: T1, 5-hydroxytryptamine receptor 1A (Homo sapiens, UniProt P08908); type: functional, cell-based
T1 sequence (P08908 whole entry): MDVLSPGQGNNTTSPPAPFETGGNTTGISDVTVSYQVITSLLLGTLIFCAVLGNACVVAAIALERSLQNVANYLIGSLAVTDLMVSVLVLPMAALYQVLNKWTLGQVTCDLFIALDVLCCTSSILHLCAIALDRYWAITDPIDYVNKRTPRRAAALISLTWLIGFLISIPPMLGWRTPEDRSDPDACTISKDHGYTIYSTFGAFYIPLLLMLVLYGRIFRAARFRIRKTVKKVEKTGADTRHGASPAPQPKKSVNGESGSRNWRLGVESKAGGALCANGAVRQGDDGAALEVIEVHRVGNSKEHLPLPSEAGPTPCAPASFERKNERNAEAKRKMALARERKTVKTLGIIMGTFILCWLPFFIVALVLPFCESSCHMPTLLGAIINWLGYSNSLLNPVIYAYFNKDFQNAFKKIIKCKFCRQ

[2] = target: 5-hydroxytryptamine receptor 2B (Homo sapiens, UniProt P41595); type: functional, cell-based
Chain of 5-hydroxytryptamine receptor 2B (P41595 whole entry): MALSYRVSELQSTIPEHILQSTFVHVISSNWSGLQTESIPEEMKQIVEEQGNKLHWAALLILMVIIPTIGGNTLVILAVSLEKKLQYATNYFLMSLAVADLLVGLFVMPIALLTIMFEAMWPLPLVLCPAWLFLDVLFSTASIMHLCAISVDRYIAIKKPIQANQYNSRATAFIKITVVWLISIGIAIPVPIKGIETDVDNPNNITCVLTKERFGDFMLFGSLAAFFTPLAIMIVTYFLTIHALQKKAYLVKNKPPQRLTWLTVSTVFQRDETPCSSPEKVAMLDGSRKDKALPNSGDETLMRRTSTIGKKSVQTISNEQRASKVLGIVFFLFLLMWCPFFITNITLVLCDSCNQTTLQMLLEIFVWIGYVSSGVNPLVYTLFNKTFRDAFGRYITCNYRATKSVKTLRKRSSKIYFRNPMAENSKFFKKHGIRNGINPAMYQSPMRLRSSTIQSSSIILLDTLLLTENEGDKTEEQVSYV

[3] = target: T2, Alpha-1A adrenergic receptor (Homo sapiens, UniProt P35348); type: functional, cell-based
T2 sequence (P35348 whole entry): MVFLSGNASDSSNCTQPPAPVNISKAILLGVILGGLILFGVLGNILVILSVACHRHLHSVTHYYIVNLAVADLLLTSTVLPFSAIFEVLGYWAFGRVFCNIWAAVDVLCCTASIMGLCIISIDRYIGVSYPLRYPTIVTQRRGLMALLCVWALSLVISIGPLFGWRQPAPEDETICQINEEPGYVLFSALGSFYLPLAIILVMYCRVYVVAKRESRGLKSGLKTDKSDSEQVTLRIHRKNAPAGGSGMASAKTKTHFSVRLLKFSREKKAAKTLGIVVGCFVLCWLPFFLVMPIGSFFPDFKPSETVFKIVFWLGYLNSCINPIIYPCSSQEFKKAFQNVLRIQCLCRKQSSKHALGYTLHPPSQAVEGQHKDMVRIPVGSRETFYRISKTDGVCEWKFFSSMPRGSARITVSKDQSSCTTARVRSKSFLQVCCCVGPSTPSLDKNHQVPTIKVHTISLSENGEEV

[4] = target: Kappa-type opioid receptor (Homo sapiens, UniProt P41145)
Chain of Kappa-type opioid receptor (P41145 whole entry): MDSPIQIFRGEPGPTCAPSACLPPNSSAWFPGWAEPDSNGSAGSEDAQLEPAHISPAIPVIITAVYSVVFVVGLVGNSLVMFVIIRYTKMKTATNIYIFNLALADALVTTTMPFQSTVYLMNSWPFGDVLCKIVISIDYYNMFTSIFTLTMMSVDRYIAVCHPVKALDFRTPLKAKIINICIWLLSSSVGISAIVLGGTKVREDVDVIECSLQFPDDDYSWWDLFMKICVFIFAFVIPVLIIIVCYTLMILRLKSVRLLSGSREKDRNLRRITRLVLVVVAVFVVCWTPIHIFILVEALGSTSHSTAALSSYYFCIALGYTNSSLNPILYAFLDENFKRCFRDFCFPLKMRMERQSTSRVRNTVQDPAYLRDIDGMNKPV

[5] = target: Voltage-gated inwardly rectifying potassium channel KCNH2 (Homo sapiens, UniProt Q12809); type: functional
Chain of Voltage-gated inwardly rectifying potassium channel KCNH2 (Q12809 whole entry): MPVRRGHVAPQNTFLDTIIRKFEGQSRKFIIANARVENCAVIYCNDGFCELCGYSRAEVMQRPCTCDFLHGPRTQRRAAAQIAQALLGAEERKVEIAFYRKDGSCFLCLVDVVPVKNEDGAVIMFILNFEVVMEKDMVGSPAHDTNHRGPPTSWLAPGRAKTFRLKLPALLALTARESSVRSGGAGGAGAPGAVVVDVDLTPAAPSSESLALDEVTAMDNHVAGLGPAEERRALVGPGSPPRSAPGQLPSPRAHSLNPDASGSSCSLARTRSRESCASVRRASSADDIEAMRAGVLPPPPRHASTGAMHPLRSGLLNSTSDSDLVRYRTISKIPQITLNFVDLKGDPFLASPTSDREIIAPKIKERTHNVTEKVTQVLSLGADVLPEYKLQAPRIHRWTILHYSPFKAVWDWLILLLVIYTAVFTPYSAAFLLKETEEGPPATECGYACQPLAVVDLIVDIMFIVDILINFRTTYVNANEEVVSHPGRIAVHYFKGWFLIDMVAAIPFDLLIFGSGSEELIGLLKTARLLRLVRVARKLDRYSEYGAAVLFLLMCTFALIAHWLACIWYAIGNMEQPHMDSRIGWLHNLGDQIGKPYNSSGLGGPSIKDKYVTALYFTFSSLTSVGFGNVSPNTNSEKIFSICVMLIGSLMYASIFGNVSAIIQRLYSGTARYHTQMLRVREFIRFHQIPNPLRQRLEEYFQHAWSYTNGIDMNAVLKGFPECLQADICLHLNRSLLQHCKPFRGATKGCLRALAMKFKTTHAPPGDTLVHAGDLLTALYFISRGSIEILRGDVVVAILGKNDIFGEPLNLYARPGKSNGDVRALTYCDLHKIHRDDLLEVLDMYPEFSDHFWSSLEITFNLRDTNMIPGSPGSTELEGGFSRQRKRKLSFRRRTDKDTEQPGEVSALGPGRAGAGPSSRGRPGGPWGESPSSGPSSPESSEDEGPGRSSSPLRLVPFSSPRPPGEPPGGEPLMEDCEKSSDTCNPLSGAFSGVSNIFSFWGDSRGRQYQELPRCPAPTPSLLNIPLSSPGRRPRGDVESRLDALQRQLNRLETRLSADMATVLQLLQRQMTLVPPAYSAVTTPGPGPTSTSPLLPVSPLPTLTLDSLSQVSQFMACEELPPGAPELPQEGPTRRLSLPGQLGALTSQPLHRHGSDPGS

[6] = target: Melanocortin receptor 3 (Homo sapiens, UniProt P41968)
Chain of Melanocortin receptor 3 (P41968 whole entry): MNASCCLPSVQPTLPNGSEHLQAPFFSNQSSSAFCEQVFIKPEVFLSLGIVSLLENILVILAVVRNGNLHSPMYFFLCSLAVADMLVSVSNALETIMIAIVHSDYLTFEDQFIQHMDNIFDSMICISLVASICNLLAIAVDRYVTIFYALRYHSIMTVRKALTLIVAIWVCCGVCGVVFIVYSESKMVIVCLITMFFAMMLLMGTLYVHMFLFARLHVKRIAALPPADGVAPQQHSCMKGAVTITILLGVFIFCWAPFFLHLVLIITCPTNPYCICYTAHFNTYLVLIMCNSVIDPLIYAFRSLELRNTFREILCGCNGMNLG

[7] = target: T3, Adenosine receptor A3 (Homo sapiens, UniProt P0DMS8)
T3 sequence (P0DMS8 whole entry): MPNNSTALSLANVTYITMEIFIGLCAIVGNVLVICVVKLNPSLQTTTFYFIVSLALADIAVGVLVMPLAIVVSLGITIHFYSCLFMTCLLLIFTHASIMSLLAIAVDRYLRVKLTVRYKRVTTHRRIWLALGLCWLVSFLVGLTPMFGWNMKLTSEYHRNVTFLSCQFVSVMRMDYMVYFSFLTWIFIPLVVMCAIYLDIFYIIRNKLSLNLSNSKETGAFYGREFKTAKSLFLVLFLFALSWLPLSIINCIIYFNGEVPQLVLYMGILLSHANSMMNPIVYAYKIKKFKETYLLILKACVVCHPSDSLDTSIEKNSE

[8] = target: T4, Neuropeptide Y receptor type 1 (Homo sapiens, UniProt P25929)
T4 sequence (P25929 whole entry): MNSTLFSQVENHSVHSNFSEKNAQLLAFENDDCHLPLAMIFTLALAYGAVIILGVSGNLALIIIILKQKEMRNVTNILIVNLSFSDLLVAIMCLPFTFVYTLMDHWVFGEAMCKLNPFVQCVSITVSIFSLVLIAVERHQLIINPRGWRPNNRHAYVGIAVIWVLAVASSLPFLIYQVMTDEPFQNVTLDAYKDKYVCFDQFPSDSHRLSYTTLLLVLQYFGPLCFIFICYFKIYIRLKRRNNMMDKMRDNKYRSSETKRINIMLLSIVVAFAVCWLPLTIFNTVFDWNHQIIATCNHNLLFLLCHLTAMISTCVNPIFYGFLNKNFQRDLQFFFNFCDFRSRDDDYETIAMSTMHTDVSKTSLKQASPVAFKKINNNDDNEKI

[9] = target: Growth hormone secretagogue receptor type 1 (Homo sapiens, UniProt Q92847)
Chain of Growth hormone secretagogue receptor type 1 (Q92847 whole entry): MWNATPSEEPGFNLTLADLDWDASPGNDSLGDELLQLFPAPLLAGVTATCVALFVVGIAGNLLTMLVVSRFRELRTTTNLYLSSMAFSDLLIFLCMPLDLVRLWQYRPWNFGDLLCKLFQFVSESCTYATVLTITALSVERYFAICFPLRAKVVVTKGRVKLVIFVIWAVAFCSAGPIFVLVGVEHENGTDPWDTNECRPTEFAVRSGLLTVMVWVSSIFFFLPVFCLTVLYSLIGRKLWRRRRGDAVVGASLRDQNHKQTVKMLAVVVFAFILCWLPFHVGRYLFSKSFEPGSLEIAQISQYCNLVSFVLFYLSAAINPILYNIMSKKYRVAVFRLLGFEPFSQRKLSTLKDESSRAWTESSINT

[10] = target: T5, Adenosine receptor A1 (Homo sapiens, UniProt P30542)
T5 sequence (P30542 whole entry): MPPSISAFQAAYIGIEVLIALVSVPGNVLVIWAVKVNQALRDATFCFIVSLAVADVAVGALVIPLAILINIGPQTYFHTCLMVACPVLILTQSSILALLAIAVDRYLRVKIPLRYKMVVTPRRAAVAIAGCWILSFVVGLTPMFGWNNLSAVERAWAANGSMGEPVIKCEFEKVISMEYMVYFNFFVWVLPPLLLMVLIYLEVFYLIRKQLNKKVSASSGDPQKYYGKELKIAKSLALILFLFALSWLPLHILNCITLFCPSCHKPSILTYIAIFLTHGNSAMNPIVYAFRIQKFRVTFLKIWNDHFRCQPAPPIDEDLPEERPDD

[11] = target: T6, Alpha-2C adrenergic receptor (Homo sapiens, UniProt P18825); type: functional
T6 sequence (P18825 whole entry): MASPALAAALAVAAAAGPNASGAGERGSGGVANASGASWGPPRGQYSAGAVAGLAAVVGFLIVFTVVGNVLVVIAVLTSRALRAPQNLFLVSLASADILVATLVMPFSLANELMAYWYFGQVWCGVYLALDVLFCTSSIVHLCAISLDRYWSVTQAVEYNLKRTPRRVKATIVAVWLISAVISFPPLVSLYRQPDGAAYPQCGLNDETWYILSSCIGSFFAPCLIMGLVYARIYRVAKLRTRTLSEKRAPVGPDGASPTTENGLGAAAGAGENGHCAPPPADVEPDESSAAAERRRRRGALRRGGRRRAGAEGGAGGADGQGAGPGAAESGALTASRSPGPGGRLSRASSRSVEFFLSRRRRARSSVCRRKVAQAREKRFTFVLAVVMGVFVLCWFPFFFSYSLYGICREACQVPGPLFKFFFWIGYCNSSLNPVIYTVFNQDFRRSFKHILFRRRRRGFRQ
Also: assay procedure not described here.

Compound | AC50 [1] [µM] | AC50 [2] [µM] | AC50 [3] [µM] | AC50 [4] [µM] | AC50 ([5]; human, cellular components) [µM] | AC50 [6] [µM] | AC50 [7] [µM] | AC50 [8] [µM] | AC50 [9] [µM] | AC50 ([5]; read-out: AC50) [µM] | AC50 [10] [µM] | AC50 [11] [µM]
Clc1ccccc1C(c1ccccc1)(c1ccccc1)n1ccnc1 [CLOTRIMAZOLE] | > 10 | > 10 | > 30 | 0.746 |  |  |  |  |  |  |  | 
THIMEROSAL |  | > 30 |  |  | > 30 |  |  |  |  |  |  | 
Brc1c(NC2=NCCN2)ccc2nccnc12 [BRIMONIDINE] |  | > 30 | 0.645 | > 30 |  | > 30 | > 30 | > 30 | > 30 | > 30 | > 30 | 
CC(CC1c2ccccc2CCc2ccccc21)CN(C)C (configuration not stated) [BUTRIPTYLINE] | > 30 | > 30 | > 30 | > 30 |  |  |  |  |  | 2.1 |  | 6.9
COc1ccc2c3c1O[C@H]1[C@@H](O)CC[C@H]4[C@@H](C2)N(C)CC[C@@]341 [DIHYDROCODEINE] | > 30 | > 30 | > 30 | > 30 |  |  |  |  |  | > 30 |  | > 30
CO[C@]12C[C@@H](COC(=O)c3cncc(Br)c3)CN(C)[C@@H]1Cc1cn(C)c3cccc2c13 [NICERGOLINE] |  |  |  |  |  |  |  |  |  | 0.13 |  | 
C[C@H]1COc2c(C3(N)CC3)c(F)cc3c(=O)c(C(=O)O)cn1c23 [PAZUFLOXACIN] | > 10 | > 10 |  | > 10 |  | > 10 | > 10 | > 10 | > 10 | > 30 | > 10 | > 10
NC(=O)OCC(COC(N)=O)c1ccccc1 [FELBAMATE] | > 10 | > 10 |  | > 10 |  | > 10 | > 10 | > 10 | > 10 | > 30 | > 10 | > 10
C#C[C@]1(O)CC[C@H]2[C@@H]3[C@H](C)CC4=C(CCC(=O)C4)[C@H]3CC[C@@]21C [TIBOLONE] | > 30 | > 30 | > 30 | 19 |  | > 30 | 8.1 | > 30 | > 30 | > 30 | > 30 | > 30
CC/C(=C(\c1ccccc1)c1ccc(OCCN(C)C)cc1)c1ccccc1 [TAMOXIFEN] | > 10 | > 10 | > 30 | 8.53 |  |  |  |  |  |  |  | > 10
Cc1nnc2n1-c1ccc(Cl)cc1C(c1ccccc1Cl)=NC2 [TRIAZOLAM] | > 10 | > 10 | 14 |  |  | > 30 | > 30 | > 30 | > 30 | > 30 | > 30 | > 10
O=C1C(O)=C([C@H]2CC[C@H](c3ccc(Cl)cc3)CC2)C(=O)c2ccccc21 [ATOVAQUONE] | > 30 | > 30 | > 30 | > 30 |  | > 30 | > 30 | > 30 | > 30 | > 30 | > 30 | > 30
CC(C)(C)NCC(O)COc1cccc2c1CCC(=O)N2 (configuration not stated) [CARTEOLOL] | 8.8 | > 10 | > 30 | 11.6 |  | > 10 | > 10 | > 10 | > 10 | > 30 | > 10 | > 10
Cc1cc(C(C)(C)C)c(O)c(C)c1CC1=NCCN1 [OXYMETAZOLINE] |  | 0.266 |  |  |  | > 30 | > 30 |  |  | > 30 |  | 
CC1(C)CCC(CN2CCN(c3ccc(C(=O)NS(=O)(=O)c4ccc(NCC5CCOCC5)c([N+](=O)[O-])c4)c(Oc4cnc5[nH]ccc5c4)c3)CC2)=C(c2ccc(Cl)cc2)C1 [VENETOCLAX] |  |  |  |  |  | > 30 | 2.3 |  |  | > 30 |  | 17
Fc1ccc(C(c2ccccc2)(c2ccccc2F)n2ccnc2)cc1 (configuration not stated) [FLUTRIMAZOLE] |  | > 30 | > 30 | 0.93 |  | > 30 | 15 | > 30 | > 30 | 1.68 | > 30 | > 30
Nc1nc(Cl)nc2c1ncn2[C@H]1C[C@H](O)[C@@H](CO)O1 [CLADRIBINE] | > 30 | > 30 | > 30 | > 30 |  | > 30 | > 30 | > 30 | > 30 | > 30 | > 30 | > 30
COc1cccc(C2(O)CCCCC2CN(C)C)c1 (configuration not stated) [TRAMADOL] | > 10 | > 10 | > 30 | > 10 |  | > 30 | > 30 | > 30 | > 30 | > 30 | > 30 | > 10
C[C@@H]1O[C@@H](O[C@@H]2C=C3CC[C@@H]4[C@H](CC[C@]5(C)[C@@H](c6ccc(=O)oc6)CC[C@]45O)[C@@]3(C)CC2)[C@H](O)[C@H](O)[C@H]1O [PROSCILLARIDIN] | > 30 | > 30 | > 30 | > 30 |  | > 30 | > 30 | > 30 | > 30 | > 30 | > 30 | > 30
COc1ccc(CCNCC(O)COc2cccc(C)c2)cc1OC (configuration not stated) [BEVANTOLOL] |  | > 10 | > 30 | > 10 |  | > 10 | > 10 | > 10 | > 10 | 3.41 | > 10 | 9.4
